Data published in patent US12441726B2, “Compounds and uses thereof” (Foghorn Therapeutics Inc., priority 2020, dated 2025).

Tests used:
BRM = BRM (Homo sapiens, UniProt P51531); assay: ATPase catalytic activity assay (ADP-Glo), BRM; conditions: 30 nM BRM, 400 μM ATP; for IC50: BRM ATPase: IC50 (uM)
BRG-1 = BRG-1 (Homo sapiens, UniProt P51532); assay: ATPase catalytic activity assay (ADP-Glo), BRG-1; conditions: for Emax: 1 h, read-out: BRG1 Max % Inhibition, ADP-Glo, 30 nM BRG-1, 400 μM ATP
Sequence of BRG-1 (P51532 whole entry): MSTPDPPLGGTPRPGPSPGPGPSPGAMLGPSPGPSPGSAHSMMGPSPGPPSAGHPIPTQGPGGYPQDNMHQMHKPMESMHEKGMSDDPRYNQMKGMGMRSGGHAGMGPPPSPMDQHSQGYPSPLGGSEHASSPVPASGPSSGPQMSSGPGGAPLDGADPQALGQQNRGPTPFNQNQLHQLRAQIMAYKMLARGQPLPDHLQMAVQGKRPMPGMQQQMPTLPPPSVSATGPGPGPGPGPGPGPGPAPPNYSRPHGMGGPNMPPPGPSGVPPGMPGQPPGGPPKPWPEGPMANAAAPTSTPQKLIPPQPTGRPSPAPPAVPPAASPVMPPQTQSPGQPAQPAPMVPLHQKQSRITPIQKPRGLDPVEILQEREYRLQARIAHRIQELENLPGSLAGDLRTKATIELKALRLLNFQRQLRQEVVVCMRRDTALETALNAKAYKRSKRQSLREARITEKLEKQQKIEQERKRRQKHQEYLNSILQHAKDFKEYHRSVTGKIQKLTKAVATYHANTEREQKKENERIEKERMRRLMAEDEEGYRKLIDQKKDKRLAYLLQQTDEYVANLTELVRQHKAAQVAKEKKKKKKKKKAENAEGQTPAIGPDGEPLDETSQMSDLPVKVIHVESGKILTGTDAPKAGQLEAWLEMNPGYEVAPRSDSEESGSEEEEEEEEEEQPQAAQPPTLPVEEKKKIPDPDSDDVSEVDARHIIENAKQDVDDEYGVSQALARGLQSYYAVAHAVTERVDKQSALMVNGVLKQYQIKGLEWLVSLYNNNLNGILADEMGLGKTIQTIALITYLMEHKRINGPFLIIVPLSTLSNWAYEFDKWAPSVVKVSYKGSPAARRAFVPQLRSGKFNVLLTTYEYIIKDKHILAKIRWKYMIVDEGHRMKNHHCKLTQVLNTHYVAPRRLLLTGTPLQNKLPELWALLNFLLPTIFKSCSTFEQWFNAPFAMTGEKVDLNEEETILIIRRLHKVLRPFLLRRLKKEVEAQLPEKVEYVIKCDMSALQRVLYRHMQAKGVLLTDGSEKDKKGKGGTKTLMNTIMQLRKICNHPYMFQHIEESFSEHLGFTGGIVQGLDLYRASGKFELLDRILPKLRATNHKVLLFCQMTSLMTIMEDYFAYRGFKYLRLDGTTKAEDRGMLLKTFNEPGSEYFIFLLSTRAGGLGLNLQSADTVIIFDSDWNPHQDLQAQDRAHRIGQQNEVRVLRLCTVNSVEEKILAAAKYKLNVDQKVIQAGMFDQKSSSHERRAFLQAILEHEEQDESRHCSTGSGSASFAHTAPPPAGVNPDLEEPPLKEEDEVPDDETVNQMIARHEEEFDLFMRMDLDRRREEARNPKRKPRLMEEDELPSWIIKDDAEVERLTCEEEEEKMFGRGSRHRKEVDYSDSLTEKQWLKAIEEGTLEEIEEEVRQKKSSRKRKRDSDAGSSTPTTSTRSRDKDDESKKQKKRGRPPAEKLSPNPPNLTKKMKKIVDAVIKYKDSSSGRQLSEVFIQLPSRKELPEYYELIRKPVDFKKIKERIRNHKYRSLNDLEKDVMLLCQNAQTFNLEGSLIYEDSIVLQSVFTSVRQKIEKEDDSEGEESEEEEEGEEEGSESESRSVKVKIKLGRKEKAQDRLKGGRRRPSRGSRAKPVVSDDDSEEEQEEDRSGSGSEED

Sequence of BRM (P51531 whole entry): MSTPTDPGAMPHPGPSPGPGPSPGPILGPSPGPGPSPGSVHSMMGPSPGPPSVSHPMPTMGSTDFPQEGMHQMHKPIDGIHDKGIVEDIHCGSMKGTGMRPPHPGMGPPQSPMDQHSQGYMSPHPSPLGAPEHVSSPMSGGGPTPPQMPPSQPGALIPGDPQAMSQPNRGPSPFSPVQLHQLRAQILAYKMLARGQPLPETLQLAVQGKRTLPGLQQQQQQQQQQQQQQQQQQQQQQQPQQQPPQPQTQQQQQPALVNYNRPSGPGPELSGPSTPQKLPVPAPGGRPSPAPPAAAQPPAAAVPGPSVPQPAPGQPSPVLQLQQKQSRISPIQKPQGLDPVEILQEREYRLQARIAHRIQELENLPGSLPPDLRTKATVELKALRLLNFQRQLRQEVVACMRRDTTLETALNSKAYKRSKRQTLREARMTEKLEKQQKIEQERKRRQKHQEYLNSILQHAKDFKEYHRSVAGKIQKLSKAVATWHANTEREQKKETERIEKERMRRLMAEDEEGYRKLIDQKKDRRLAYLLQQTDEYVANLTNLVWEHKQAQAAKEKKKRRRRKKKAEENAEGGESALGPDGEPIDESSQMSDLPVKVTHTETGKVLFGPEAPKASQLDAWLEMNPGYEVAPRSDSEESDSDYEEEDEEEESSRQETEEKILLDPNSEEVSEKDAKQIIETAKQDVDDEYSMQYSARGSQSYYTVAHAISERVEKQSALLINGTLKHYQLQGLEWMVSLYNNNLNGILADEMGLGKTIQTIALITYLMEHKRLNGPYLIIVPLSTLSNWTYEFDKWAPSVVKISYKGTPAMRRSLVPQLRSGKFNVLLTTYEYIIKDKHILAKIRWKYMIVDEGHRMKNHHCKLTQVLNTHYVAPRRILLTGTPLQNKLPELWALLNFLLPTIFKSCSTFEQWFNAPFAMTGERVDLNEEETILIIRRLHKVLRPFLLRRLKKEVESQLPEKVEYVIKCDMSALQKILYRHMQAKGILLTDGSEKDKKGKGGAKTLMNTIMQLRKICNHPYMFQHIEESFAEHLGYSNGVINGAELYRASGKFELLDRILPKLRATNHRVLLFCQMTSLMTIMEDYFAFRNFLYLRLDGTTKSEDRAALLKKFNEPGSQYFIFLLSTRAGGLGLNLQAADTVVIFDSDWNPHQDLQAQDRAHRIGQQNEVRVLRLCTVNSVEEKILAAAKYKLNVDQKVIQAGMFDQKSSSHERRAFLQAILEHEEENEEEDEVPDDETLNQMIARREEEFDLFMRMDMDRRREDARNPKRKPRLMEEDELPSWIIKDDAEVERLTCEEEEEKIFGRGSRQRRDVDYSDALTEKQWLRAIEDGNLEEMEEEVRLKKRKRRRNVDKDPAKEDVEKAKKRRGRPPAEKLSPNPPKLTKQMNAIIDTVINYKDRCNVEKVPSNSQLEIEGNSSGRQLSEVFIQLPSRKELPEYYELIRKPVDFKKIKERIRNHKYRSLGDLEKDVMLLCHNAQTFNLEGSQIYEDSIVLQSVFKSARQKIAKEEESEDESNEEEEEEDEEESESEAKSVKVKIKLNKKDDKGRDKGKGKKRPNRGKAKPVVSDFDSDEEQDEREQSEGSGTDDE

| Compound | BRM Max % Inhibition (BRM) | IC50 (BRM) | IC50 (BRG-1) | Emax (BRG-1) |
| --- | --- | --- | --- | --- |
| Cc1cc(-c2ccc3cnc(CNC(=O)c4ccc5c(c4)[C@](C)(C#N)COC5)cc3n2)n[nH]1 [Compound 264] | 98% | 0.1 to 0.5 µM | 500 to 1000 nM | 72% |
| CO[C@H]1CCN(c2cncc(-c3ccc4cnc(CNC(=O)c5ccc6c(c5)[C@](C)(F)COC6)cc4c3)n2)C1 [Compound 265] | 104% | < 0.1 µM | < 100 nM | 99% |
| CO[C@@H]1CCN(c2cncc(-c3ccc4cnc(CNC(=O)c5ccc6c(c5)[C@](C)(F)COC6)cc4c3)n2)C1 [Compound 266] | 103% | < 0.1 µM | 100 to 500 nM | 96% |
| CN1CCN(c2nccc(-c3ccc4cnc(CNC(=O)c5ccc6c(c5)[C@](C)(F)COC6)cc4n3)n2)CC1=O [Compound 267] | 103% | < 0.1 µM | 100 to 500 nM | 88% |
| C[C@@]1(F)COCc2ccc(C(=O)NCc3cc4nc(-c5ccnn(C6CC6)c5=O)ccc4cn3)cc21 [Compound 268] | 97% | 0.1 to 0.5 µM | 500 to 1000 nM | 67% |
| C[C@@]1(F)COCc2c(F)cc(C(=O)NCc3cc4cc(-c5cncc(N6CCC6)n5)ccc4cn3)cc21 [Compound 269] | 104% | < 0.1 µM | 100 to 500 nM | 97% |
| C[C@@]1(C#N)COCc2c(F)cc(C(=O)NCc3cc4cc(-c5cncc(N6CCC6)n5)ccc4cn3)cc21 [Compound 270] | 104% | < 0.1 µM | < 100 nM | 98% |
| C[C@@]1(F)COCc2ccc(C(=O)NCc3cc4nc(-c5cccc(C6(O)CC6)n5)ccc4cn3)cc21 [Compound 271] | 104% | < 0.1 µM | 100 to 500 nM | 95% |
| C[C@@]1(C#N)COCc2ccc(C(=O)NCc3cc4cc(-c5ccnc(N6CCC6)c5F)ccc4cn3)cc21 [Compound 272] | 104% | < 0.1 µM | 100 to 500 nM | 95% |
| C[C@@]1(F)COCc2ccc(C(=O)NCc3cc4nc(-c5cccc(N=S(C)(C)=O)n5)ccc4cn3)cc21 [Compound 273] | 98% | 0.1 to 0.5 µM | 500 to 1000 nM | 64% |
| COc1nn(C)cc1-c1nc2cc(CNC(=O)c3ccc4c(c3)[C@](C)(C#N)COC4)ncc2s1 [Compound 274] | 93% | 0.1 to 0.5 µM | 500 to 1000 nM | 45% |
| COc1nn(C)cc1-c1ccc2nnc(CNC(=O)c3ccc4c(c3)[C@](C)(F)COC4)cc2n1 [Compound 275] | 96% | < 0.1 µM | 500 to 1000 nM | 77% |
| C[C@@]1(F)COCc2ccc(C(=O)NCc3cc4nc(-c5cncc(N6CCC6)n5)ccc4nn3)cc21 [Compound 276] | 98% | < 0.1 µM | 100 to 500 nM | 95% |
| C[C@@]1(F)COCc2ccc(C(=O)NCc3cc4nc(-c5ccccc5)ccc4nn3)cc21 [Compound 277] | 96% | 0.1 to 0.5 µM | 500 to 1000 nM | 69% |
| COCCOCCC(=O)N1CCN(c2cccc(-c3ccc4cnc(CNC(=O)c5ccc6c(c5)[C@](C)(C#N)COC6)cc4n3)n2)CC1 [Compound 278] | 101% | < 0.1 µM | 100 to 500 nM | 96% |
| C[C@@]1(F)COCc2ccc(C(=O)NCc3cc4nc(N5CCN(C6CC6)S5(=O)=O)ccc4cn3)cc21 [Compound 279] | 83% | 0.1 to 0.5 µM | 500 to 1000 nM | 67% |

| Compound | BRM Max % Inhibition (BRM) | IC50 (BRM) | IC50 (BRG-1) | Emax (BRG-1) |
| --- | --- | --- | --- | --- |
| C[C@@]1(C#N)COCc2ccc(C(=O)NCc3cc4cc(-c5ccnc(C6CC6)c5F)cnc4cn3)cc21 [Compound 280] | 96% | 0.1 to 0.5 µM | 100 to 500 nM | 82% |
| CN(C)c1cccn(-c2ccc3cnc(CNC(=O)c4ccc5c(c4)[C@](C)(C#N)COC5)cc3n2)c1=O [Compound 281] | 92% | 0.1 to 0.5 µM | > 1000 nM | 48% |
| C[C@@]1(C#N)COCc2ccc(C(=O)NCc3cc4nc(-n5cccc(C6CC6)c5=O)ccc4cn3)cc21 [Compound 282] | 87% | 0.1 to 0.5 µM | > 1000 nM | 45% |
| C[C@@]1(C#N)COCc2ccc(C(=O)NCc3cc4nc(-n5cccc(N6CCC6)c5=O)ccc4cn3)cc21 [Compound 283] | 96% | 0.1 to 0.5 µM | 500 to 1000 nM | 63% |
| C[C@@]1(C#N)COCc2ccc(C(=O)NCc3cc4nc(-c5ccnc(N6CC7CC(C6)O7)n5)ccc4cn3)cc21 [Compound 284] | 99% | < 0.1 µM | 100 to 500 nM | 93% |
| C[C@@]1(C#N)COCc2ccc(C(=O)NCc3cc4nc(-c5ccnc(N6CC7CC6C7)n5)ccc4cn3)cc21 [Compound 285] | 98% | < 0.1 µM | 100 to 500 nM | 92% |
| C[C@@]1(C#N)COCc2ccc(C(=O)NCc3cc4c(cn3)CCN(c3ccccn3)C4)cc21 [Compound 286] | 85% | 0.1 to 0.5 µM | > 1000 nM | 43% |
| CN1CCC(C(=O)N2CCN(c3cccc(-c4ccc5cnc(CNC(=O)c6ccc7c(c6)[C@](C)(C#N)COC7)cc5n4)n3)CC2)CC1 [Compound 287] | 99% | < 0.1 µM | 500 to 1000 nM | 99% |
| COCCC(=O)N1CCN(c2cccc(-c3ccc4cnc(CNC(=O)c5ccc6c(c5)[C@](C)(C#N)COC6)cc4n3)n2)CC1 [Compound 288] | 101% | < 0.1 µM | 100 to 500 nM | 98% |
| Cn1cc(-c2nc3cc(CNC(=O)c4ccc5c(c4)[C@](C)(C#N)COC5)ncc3s2)cn1 [Compound 289] | 90% | 0.1 to 0.5 µM | > 1000 nM | 41% |
| C[C@@]1(F)COCc2ncc(C(=O)NCc3cc4nc(-c5ccccc5)sc4cn3)cc21 [Compound 290] | 94% | 0.1 to 0.5 µM | 500 to 1000 nM | 53% |
| C[C@@]1(C#N)COCc2ccc(C(=O)NCc3cc4nc(-c5cncc(N6CC[C@@H](F)C6)n5)ccc4cn3)cc21 [Compound 291] | 100% | < 0.1 µM | < 100 nM | 97% |
| C[C@@]1(F)COCc2ccc(C(=O)NCc3cc4nc(-c5ccnc(N6CCN(C7COC7)CC6)n5)ccc4cn3)cc21 [Compound 292] | 99% | < 0.1 µM | 100 to 500 nM | 94% |
| Cn1nccc(-c2ccc3cnc(CNC(=O)c4ccc5c(c4)[C@](C)(F)COC5)cc3n2)c1=O [Compound 293] | 88% | 0.1 to 0.5 µM | > 1000 nM | 33% |
| C[C@@]1(C#N)COCc2ccc(C(=O)NCc3cc4cc(-c5ccnc(N6CCC6)c5F)cnc4cn3)cc21 [Compound 294] | 100% | < 0.1 µM | 100 to 500 nM | 86% |
